# Where a SMILES comes first, the peptide text is derived from it. [ ]: non-standard residue; d: D form. pS = N[C@@H](COP(=O)(O)O)C(=O)O
# What was measured:
# 14-3-3ζ = molecular target: T1, 14-3-3ζ (Homo sapiens, UniProt P63104); experiment: Isothermal titration calorimetry; type: binding
# T1 sequence (P63104 1-230): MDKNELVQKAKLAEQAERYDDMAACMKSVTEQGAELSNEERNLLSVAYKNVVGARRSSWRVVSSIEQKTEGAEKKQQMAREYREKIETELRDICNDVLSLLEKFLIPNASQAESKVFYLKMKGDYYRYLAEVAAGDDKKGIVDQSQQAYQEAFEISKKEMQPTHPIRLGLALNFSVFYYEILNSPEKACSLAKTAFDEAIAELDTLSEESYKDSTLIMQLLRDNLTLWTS
# T1 sequence (P30307 207-244 partner): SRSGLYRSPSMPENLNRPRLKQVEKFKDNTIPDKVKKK
# Arf1/Arf1GAP = details: ref [48],[49]; cited from earlier work
# [1] = tested on: TASK3 plasma membrane localization; details: ref [47]; cited from earlier work
# [2] = tested on: 14-3-3 proteins with the potassium channel TASK3; details: ref [47]; cited from earlier work
# [3] = tested on: 14-3-3 with the protein kinase C-Raf; details: ref [48]; cited from earlier work
# [4] = tested on: 14-3-3 with the chloride channel CFTR; details: ref [18]; cited from earlier work
# [5] = Potentiometric pKa determination; type: physicochemical; details: determined potentiometrically
# 14-3-3/C-Raf peptide = details: fluorescence polarization, labeled peptide; ref [31]; cited from earlier work
# [6] = tested on: 14-3-3ζ/Cdc25CpS216 interaction; experiment: ITC: reinforcement of the 14-3-3ζ/Cdc25CpS216 interaction by CLR01; type: binding; details: 250 μM or 1.5 mM CLR01 vs no CLR01
# [7] = tested on: 14-3-3/Exoenzyme S peptide; details: fluorescence polarization, labeled peptide; ref [31]; cited from earlier work
# Cdc25CpS216 peptide [8] = molecular target: T2, Cdc25CpS216 peptide (Homo sapiens, not fully specified; phosphoSer216); experiment: ITC
# T2 chain: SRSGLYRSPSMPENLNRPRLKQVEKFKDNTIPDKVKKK
# Cdc25CpS216 peptide [9] = molecular target: T3, Cdc25CpS216 peptide (Homo sapiens, not fully specified; phosphoSer216, 250 μM CLR01); experiment: ITC
# T3 chain: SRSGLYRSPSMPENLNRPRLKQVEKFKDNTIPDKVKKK
# Cdc25CpS216 peptide [10] = molecular target: T4, Cdc25CpS216 peptide (Homo sapiens, not fully specified; phosphoSer216, 1.5 mM CLR01); experiment: ITC
# T4 chain: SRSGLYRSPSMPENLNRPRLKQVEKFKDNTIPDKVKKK
molecule,measurement,setting,value
CC[C@H](C)[C@H](NC(=O)[C@@H](NC(=O)[C@H](CC(N)=O)NC(=O)[C@H](CC(=O)O)NC(=O)[C@H](CCCCN)NC(=O)[C@H](Cc1ccccc1)NC(=O)[C@H](CCCCN)NC(=O)[C@H](CCC(=O)O)NC(=O)[C@@H](NC(=O)[C@H](CCC(N)=O)NC(=O)[C@H](CCCCN)NC(=O)[C@H](CC(C)C)NC(=O)[C@H](CCCNC(=N)N)NC(=O)[C@@H]1CCCN1C(=O)[C@H](CCCNC(=N)N)NC(=O)[C@H](CC(N)=O)NC(=O)[C@H](CC(C)C)NC(=O)[C@H](CC(N)=O)NC(=O)[C@H](CCC(=O)O)NC(=O)[C@@H]1CCCN1C(=O)[C@H](CCSC)NC(=O)[C@H](COP(=O)(O)O)NC(=O)[C@@H]1CCCN1C(=O)[C@H](CO)NC(=O)[C@H](CCCNC(=N)N)NC(=O)[C@H](Cc1ccc(O)cc1)NC(=O)[C@H](CC(C)C)NC(=O)CNC(=O)[C@H](CO)NC(=O)[C@H](CCCNC(=N)N)NC(=O)[C@@H](N)CO)C(C)C)[C@@H](C)O)C(=O)N1CCC[C@H]1C(=O)N[C@@H](CC(=O)O)C(=O)N[C@@H](CCCCN)C(=O)N[C@H](C(=O)N[C@@H](CCCCN)C(=O)N[C@@H](CCCCN)C(=O)N[C@@H](CCCCN)C(=O)O)C(C)C [Cdc25CpS216] (H-SRSGLYRSP[pS]MPENLNRPRLKQVEKFKDNTIPDKVKKK-OH),Kd,14-3-3ζ,5.16 µM
C[C@H]1CCC/C=C/[C@@H]2C[C@H](O)C[C@H]2[C@H](O)/C=C/C(=O)O1 [brefeldin A],stabilization factor of target protein complex Arf1/Arf1GAP,Arf1/Arf1GAP,10
COCC1CCC2C1=CC1(C)C(=C(C(C)C)C3CCOC31)C(OC1OC3COC(C)(C)OC3C(O)C1O)C(O)C2C (stereo not shown) [FC-THF],increase in plasma membrane localization,[1],50%
same,stabilization of the interaction of 14-3-3 proteins with TASK3,[2],around 19 fold
COCC1O[C@H](O[C@@H]2C3=C(C(C)C)CC[C@]3(C)/C=C3\[C@@H](CC[C@]3(O)COC)[C@@H](C)[C@H]2O)C(O)C2OC3O[C@]12O[C@@]3(C)C1CO1 (stereo partly shown) [cotylenin A],stabilization factor of 14-3-3 binding with C-Raf,[3],17
C=CC(C)(C)OC[C@H]1O[C@H](O[C@@H]2C3=C([C@H](C)COC(C)=O)C[C@H](O)[C@]3(C)/C=C3/[C@@H](COC)CC[C@H]3[C@@H](C)[C@H]2O)[C@H](O)[C@@H](OC(C)=O)[C@@H]1O [fusicoccin],stabilization factor of 14-3-3 binding with CFTR,[4],9
O=P(O)(O)Oc1c2c(c(OP(=O)(O)O)c3c1C1CC3c3cc4c(cc31)C1CC4c3ccccc31)C1CC2c2cc3c(cc21)C1CC3c2ccccc21 [CLR01],second pKa value of the hydrogen phosphate group,[5],7.4
same,effect on binding of C-Raf-derived peptide to 14-3-3,14-3-3/C-Raf peptide,inhibited
same,reinforcement of the 14-3-3ζ/Cdc25CpS216 interaction,[6],2–3 fold
same,effect on binding of Exoenzyme S-derived peptide to 14-3-3,[7],inhibited
14-3-3ζ (protein) MDKNELVQKAKLAEQAERYDDMAACMKSVTEQGAELSNEERNLLSVAYKNVVGARRSSWRVVSSIEQKTEGAEKKQQMAREYREKIETELRDICNDVLSLLEKFLIPNASQAESKVFYLKMKGDYYRYLAEVAAGDDKKGIVDQSQQAYQEAFEISKKEMQPTHPIRLGLALNFSVFYYEILNSPEKACSLAKTAFDEAIAELDTLSEESYKDSTLIMQLLRDNLTLWTSDTQGDEAEAGEGGEN,Kd,Cdc25CpS216 peptide [8],5.16 µM
same,Kd,Cdc25CpS216 peptide [9],2.75 µM
same,Kd,Cdc25CpS216 peptide [10],2.06 µM

# — PMC5691318 (Journal of the American Chemical Society, 2017)
